Assay results: US12583851B2, “Heteroaryl-substituted pyrazine derivatives as pesticides” (Elanco Animal Health GmbH, priority 2019, dated 2026)

Assays:
Format in all cases: in vivo
[1] = tested on: Rhipicephalus (Boophilus) microplus larvae (strain Parkhurst, resistant against synthetic pyrethroids); assay: Rhipicephalus (Boophilus) microplus in-vitro contact test, larval cattle tick; settings: after 48 hours, read-out: efficacy (larvae dead or moribund); for pest or weed control at 1 µg/cm2, 100 g/ha: 1 μg/cm^2 (=100 g/ha); for pest or weed control at 5 µg/cm2, 500 g/ha: 5 μg/cm^2 (=500 g/ha)
Outline: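 Pyrethroid-resistant larvae (strain Parkhurst), 20–50 per tube, exposed by contact to a dried acetone film of compound (5 μg/cm² at 900 ppm) for 48 h at 27 °C and 85% humidity. Percent dead or moribund larvae scored from negative geotactic behaviour.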

[2] = tested on: larvae of the banded cucumber beetle (Diabrotica balteata); assay: Diabrotica balteata spray test; settings: 168 h, after 7 days, read-out: efficacy (seedling growth); for pest or weed control at 6.4 µg/disc, 20 g/ha: 20 g/ha (=6.4 μg/well); for pest or weed control at 32 µg/disc, 100 g/ha: 100 g/ha (=32 μg/well)
Outline: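 Efficacy was read 7 days after infesting each unit with 10–20 banded cucumber beetle larvae, as % of seedlings growing like untreated, uninfested controls. Before infestation, wheat seeds germinated 1 day on agar (5 per well) were sprayed with the active ingredient. The active was formulated in acetone/DMF and diluted in water containing emulsifier.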

[3] = tested on: fall armyworm larvae (Spodoptera frugiperda); assay: Spodoptera frugiperda spray test; settings: 168 h, maize leaf sections, after 7 days
Outline: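 Percent larval kill read at day 7, from 0% (no caterpillars dead) to 100% (all dead). Larvae were placed on dried Zea mays leaf discs previously sprayed with test preparations made from an acetone/DMF solution diluted in 1000 ppm emulsifier-containing water.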

**Q.** With CC(NC(=O)c1cc(C(F)(F)F)cc(C(F)(F)F)c1)c1nccnc1-n1cc(C#N)cn1 (racemic) [Example I-100, N-{(rac)-1-[3-(4-Cyano-1H-pyrazol-1-yl)pyrazin-2-yl]ethyl}-3,5-bis(trifluoromethyl)benzamide] as the compound, how does the pest or weed control at 1 µg/cm2, 100 g/ha [1] read?
**A.** 100%

**Q.** What about the pest or weed control at 5 µg/cm2, 500 g/ha [1] of the same compound?
**A.** 100%

**Q.** And the pest or weed control at 6.4 µg/disc, 20 g/ha [2]?
**A.** 100%

**Q.** What about the pest or weed control at 32 µg/disc, 100 g/ha [2] of the same compound?
**A.** 100%

**Q.** And the mortality at 100 g/ha [3]?
**A.** 100%

**Q.** For CC(NC(=O)c1cc(Br)cc(OC(F)(F)F)c1)c1nccnc1-n1cc(C#N)cn1 (racemic) [Example I-102, (rac)-3-Bromo-N-{1-[3-(4-cyano-1H-pyrazol-1-yl)pyrazin-2-yl]ethyl}-5-(trifluoromethoxy)benzamide], which pest or weed control at 1 µg/cm2, 100 g/ha [1] is on record?
**A.** 90%

**Q.** What about the pest or weed control at 5 µg/cm2, 500 g/ha [1] of the same compound?
**A.** 90%

**Q.** What about the pest or weed control at 6.4 µg/disc, 20 g/ha [2] of the same compound?
**A.** 100%

**Q.** And the pest or weed control at 32 µg/disc, 100 g/ha [2]?
**A.** 100%

**Q.** What about the mortality at 100 g/ha [3] of the same compound?
**A.** 100%

**Q.** For CC(NC(=O)c1cc(Br)cc(C(F)(F)F)c1)c1nccnc1-n1cc(C#N)cn1 (racemic) [Example I-113, (rac)-3-Bromo-N-{1-[3-(4-cyano-1H-pyrazol-1-yl)pyrazin-2-yl]ethyl}-5-(trifluoromethyl)benzamide], which pest or weed control at 1 µg/cm2, 100 g/ha [1] is on record?
**A.** 100%

**Q.** What about the pest or weed control at 5 µg/cm2, 500 g/ha [1] of the same compound?
**A.** 100%

**Q.** And the pest or weed control at 6.4 µg/disc, 20 g/ha [2]?
**A.** 100%

**Q.** What about the pest or weed control at 32 µg/disc, 100 g/ha [2] of the same compound?
**A.** 100%

**Q.** What about the mortality at 100 g/ha [3] of the same compound?
**A.** 100%

**Q.** Which results are given for CC(NC(=O)c1cc(Cl)cc(S(=O)(=O)C(F)(F)F)c1)c1nccnc1-n1cc(C#N)cn1 (racemic) [Example I-114, (rac)-3-Chloro-N-{1-[3-(4-cyano-1H-pyrazol-1-yl)pyrazin-2-yl]ethyl}-5-(trifluoromethanesulfonyl)benzamide]?
**A.** pest or weed control at 1 µg/cm2, 100 g/ha [1]: 90%; pest or weed control at 5 µg/cm2, 500 g/ha [1]: 90%; pest or weed control at 32 µg/disc, 100 g/ha [2]: 100%; mortality at 100 g/ha [3]: 100%

**Q.** Which pest or weed control at 1 µg/cm2, 100 g/ha [1] does the source give for CC(NC(=O)c1cc(C#N)cc(C(F)(F)F)c1)c1nccnc1-n1cc(C#N)cn1 (racemic) [Example I-115, (rac)-3-Cyano-N-{1-[3-(4-cyano-1H-pyrazol-1-yl)pyrazin-2-yl]ethyl}-5-(trifluoromethyl)benzamide] here?
**A.** 100%

**Q.** What about the pest or weed control at 5 µg/cm2, 500 g/ha [1] of the same compound?
**A.** 100%

**Q.** And the pest or weed control at 6.4 µg/disc, 20 g/ha [2]?
**A.** 100%

**Q.** And the pest or weed control at 32 µg/disc, 100 g/ha [2]?
**A.** 100%

**Q.** And the mortality at 100 g/ha [3]?
**A.** 100%

**Q.** With CC(NC(=O)c1cc(C#N)cc(OC(F)(F)F)c1)c1nccnc1-n1cc(C#N)cn1 (racemic) [Example I-116, (rac)-3-Cyano-N-{1-[3-(4-cyano-1H-pyrazol-1-yl)pyrazin-2-yl]ethyl}-5-(trifluoromethoxy)benzamide] as the compound, how does the pest or weed control at 1 µg/cm2, 100 g/ha [1] read?
**A.** 90%

**Q.** And the pest or weed control at 5 µg/cm2, 500 g/ha [1]?
**A.** 100%

**Q.** What about the pest or weed control at 6.4 µg/disc, 20 g/ha [2] of the same compound?
**A.** 100%

**Q.** And the pest or weed control at 32 µg/disc, 100 g/ha [2]?
**A.** 100%

**Q.** And the mortality at 100 g/ha [3]?
**A.** 100%

**Q.** For CC(NC(=O)c1cc(Br)cc(C(F)(F)F)c1)c1nccnc1-c1ncc(C(=O)N2C[C@@H](C)O[C@@H](C)C2)s1 (mixture of isomers) [Example I-120, (rac)-3-Bromo-N-[1-(3-{5-[(cis)-2,6-dimethylmorpholine-4-carbonyl]-1,3-thiazol-2-yl}pyrazin-2-yl)ethyl]-5-(trifluoromethyl)benzamide], which pest or weed control at 1 µg/cm2, 100 g/ha [1] is on record?
**A.** 100%

**Q.** And the pest or weed control at 5 µg/cm2, 500 g/ha [1]?
**A.** 100%

**Q.** And the pest or weed control at 32 µg/disc, 100 g/ha [2]?
**A.** 100%

**Q.** And the mortality at 100 g/ha [3]?
**A.** 100%

**Q.** Which results are given for Cc1cnc(C(C)NC(=O)c2cc(C(F)(F)F)cc(C(F)(F)F)c2)c(-c2ncc(C(=O)N(C)CC#N)s2)n1 (racemic) [Example I-124, (rac)-2-(3-{1-[3,5-Bis(trifluoromethyl)benzamido]ethyl}-6-methylpyrazin-2-yl)-N-(cyanomethyl)-N-methyl-1,3-thiazole-5-carboxamide]?
**A.** pest or weed control at 1 µg/cm2, 100 g/ha [1]: 100%; pest or weed control at 5 µg/cm2, 500 g/ha [1]: 100%; pest or weed control at 6.4 µg/disc, 20 g/ha [2]: 100%; pest or weed control at 32 µg/disc, 100 g/ha [2]: 100%; mortality at 100 g/ha [3]: 100%
